“And” between values parts separate entries of the source, which are not always exact repeats. Identical values can stand only once. “Also recorded” adds a separate entry of the source. Marks after values point to notes of the source that are not given here.
Key:
[1] = tested on: phospho-ERK1/2 and total ERK1/2; test: NanoPro immunoassay of lung homogenates, MCT+PN model; type: in vivo, rat; conditions: D4 and D8 groups compared to vehicle
Protocol: (§1) NanoPro Immunoassay. Relative differences in phosphorylated ERK1/2 and STAT isoforms were measured with a NanoPro100® immunoassay system (Protein Simple/Cell Biosciences, CA). See Fan et al., “Nanofluidic proteomic assay for serial analysis of oncoprotein activation in clinical specimens.” Nat Med 15:566-571 (2009).

[2] = tested on: Human pulmonary artery smooth muscle cells; test: PASMC proliferation assay (Cyquant NF); type: cell-based; conditions: PDGF BB 50 ng/ml, 24 hours, read-out: IC50, PDGF BB stimulated human PA SMC proliferation
Protocol: PASMC Proliferation Assay.
Human pulmonary artery smooth muscle cells were obtained from Cell Applications (San Diego, Calif.) and grown to 50% confluence in a 96 well format. The cells were switched to serum free media 24 hours prior to stimulation with PDGF BB 50 ng/ml and varying concentrations of PK10453. After 24 hours of treatment, a Cyquant NF Cell proliferation assay was performed (Invitrogen®), and the fluorescent signal was measured with a Cytofluor Plate reader. Data is based on an avg. of 8 replicates at each conc.

[3] = Two chamber plethysmography, rat MCT+PN model; type: in vivo; conditions: for TV / MV: MCT+PN, mean
Protocol: Plethysmography was performed with an EMKA dual chamber plethysmograph and IOX software. Parameters measured included breathing frequency, tidal volume, minute ventilation, peak inspiratory and expiratory flow, and airway resistance (SRaw). Animals were acclimatized to the plethysmograph for three days prior to first data acquisition. Measurements were made prior to the first dose of drug and at the study's end.

[4] = target: PDGFR beta receptor (Homo sapiens, UniProt P09619); test: Z-lyte in vitro kinase assay (Invitrogen Select Screen); type: biochemical; conditions: ATP Km
Chain of PDGFR beta receptor (P09619 33-1106): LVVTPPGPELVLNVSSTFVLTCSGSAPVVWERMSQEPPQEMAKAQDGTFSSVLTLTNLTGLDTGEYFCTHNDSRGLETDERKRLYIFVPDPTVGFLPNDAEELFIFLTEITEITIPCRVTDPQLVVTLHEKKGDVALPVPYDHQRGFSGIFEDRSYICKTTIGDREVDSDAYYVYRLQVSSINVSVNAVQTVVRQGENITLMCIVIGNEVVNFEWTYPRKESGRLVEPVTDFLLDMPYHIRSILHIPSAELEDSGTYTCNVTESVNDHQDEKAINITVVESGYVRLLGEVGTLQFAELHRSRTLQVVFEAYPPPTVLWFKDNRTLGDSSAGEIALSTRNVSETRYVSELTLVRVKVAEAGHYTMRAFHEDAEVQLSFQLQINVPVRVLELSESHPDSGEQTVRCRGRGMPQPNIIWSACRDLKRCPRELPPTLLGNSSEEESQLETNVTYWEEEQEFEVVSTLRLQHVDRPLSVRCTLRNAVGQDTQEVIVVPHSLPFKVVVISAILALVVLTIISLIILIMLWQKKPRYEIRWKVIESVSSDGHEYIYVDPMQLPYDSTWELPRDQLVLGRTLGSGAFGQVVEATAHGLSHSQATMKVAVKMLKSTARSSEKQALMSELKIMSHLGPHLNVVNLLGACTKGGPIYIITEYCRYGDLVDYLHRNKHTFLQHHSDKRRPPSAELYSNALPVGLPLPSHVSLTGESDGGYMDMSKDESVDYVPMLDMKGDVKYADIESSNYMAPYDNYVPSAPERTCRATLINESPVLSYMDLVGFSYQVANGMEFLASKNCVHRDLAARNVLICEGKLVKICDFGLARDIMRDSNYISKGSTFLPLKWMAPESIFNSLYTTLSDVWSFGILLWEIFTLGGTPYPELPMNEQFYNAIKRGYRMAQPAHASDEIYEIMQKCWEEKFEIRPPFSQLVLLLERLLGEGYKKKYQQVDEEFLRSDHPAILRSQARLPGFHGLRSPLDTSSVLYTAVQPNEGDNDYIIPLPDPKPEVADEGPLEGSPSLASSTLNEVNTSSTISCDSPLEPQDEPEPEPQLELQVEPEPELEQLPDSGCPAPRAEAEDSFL
Protocol: In Vitro Kinase Assay. A Z-lyte kinase assay was performed to determine the inhibition of PDGFRalpha and PDGFRbeta mediated phosphorylation by PK10453. Ten point titration curves were modeled to calculate the IC50 (Invitrogen Select Screen®).

[5] = Systemic blood pressure study in ambulatory MCT treated rats; type: in vivo, rat; conditions: inhaled
Protocol: Systemic Blood Pressure Study.
The effect of PK10453 on systemic BP was studied in ambulatory MCT treated rats with DSI PAC40 transmitters implanted in the descending aorta. Three weeks after administration of MCT 60 mg/kg IP, animals inhaled PK10453 or vehicle three times/day with 4 minute exposure each dose for 7 days. Blood pressure was recorded before each morning dose.

[6] = target: T1, PDGFR alpha receptor (Homo sapiens, UniProt P16234); test: Z-lyte in vitro kinase assay (Invitrogen Select Screen); type: biochemical; conditions: ATP Km
T1 construct: purchased Invitrogen (Select Screen service)
T1 sequence (P16234 24-1089): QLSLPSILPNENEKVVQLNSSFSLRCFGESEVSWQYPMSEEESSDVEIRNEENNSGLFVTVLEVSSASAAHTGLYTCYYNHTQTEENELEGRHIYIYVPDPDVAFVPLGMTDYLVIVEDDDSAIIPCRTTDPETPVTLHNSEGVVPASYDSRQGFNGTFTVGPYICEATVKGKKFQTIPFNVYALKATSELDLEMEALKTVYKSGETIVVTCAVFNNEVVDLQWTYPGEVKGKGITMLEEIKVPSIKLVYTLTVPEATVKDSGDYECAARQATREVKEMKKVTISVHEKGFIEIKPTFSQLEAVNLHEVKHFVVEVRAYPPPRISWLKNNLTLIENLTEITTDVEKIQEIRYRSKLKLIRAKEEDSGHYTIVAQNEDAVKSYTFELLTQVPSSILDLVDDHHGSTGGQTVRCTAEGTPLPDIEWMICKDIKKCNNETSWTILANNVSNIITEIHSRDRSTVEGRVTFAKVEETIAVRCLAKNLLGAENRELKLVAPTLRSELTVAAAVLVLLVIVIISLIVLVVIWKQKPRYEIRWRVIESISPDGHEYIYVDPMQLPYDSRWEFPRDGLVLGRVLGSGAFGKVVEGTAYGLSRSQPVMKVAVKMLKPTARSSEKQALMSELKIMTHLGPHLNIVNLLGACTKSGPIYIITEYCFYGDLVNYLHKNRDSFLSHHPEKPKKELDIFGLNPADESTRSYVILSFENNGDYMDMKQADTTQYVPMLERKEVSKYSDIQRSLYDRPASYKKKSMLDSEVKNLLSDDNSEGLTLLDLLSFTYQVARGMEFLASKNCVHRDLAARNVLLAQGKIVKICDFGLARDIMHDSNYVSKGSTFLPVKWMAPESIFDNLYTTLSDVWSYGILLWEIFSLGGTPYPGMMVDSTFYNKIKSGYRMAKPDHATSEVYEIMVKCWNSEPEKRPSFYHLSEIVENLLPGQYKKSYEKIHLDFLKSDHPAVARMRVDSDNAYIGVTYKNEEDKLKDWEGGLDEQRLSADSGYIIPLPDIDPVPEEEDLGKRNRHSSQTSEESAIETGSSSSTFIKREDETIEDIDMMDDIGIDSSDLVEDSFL

[7] = Pharmacokinetic study, IV vs inhalation, lung and plasma; type: in vivo, rat; conditions: for AUC: rat
Protocol: PK10453 was administered intravenously or by inhalation to animals, which were then euthanized at time 0, 10, 20, and 60 minutes (n=3 each time point). Blood samples were taken by cardiac puncture, and the lungs excised. The lungs were homogenized and PK10453 extracted with a 1:3 mixture of acetonitrile:methanol. Similarly, plasma was extracted with a 1:3 mixture of acetonitrile:methanol. Drug was assayed by LC MS/MS (PharmOptima Inc., Portage Mich.). First order exponential curves were fit to the data with Excel. The AUC was determined with the trapezoidal method of integration.
For the pharmacokinetic study, the concentration of PK10453 in lung when administered by inhalation was compared to the concentration achieved with IV administration. As described in Morén “Aerosols in medicine: principles, diagnosis, and therapy.” Amsterdam; New York: Elsevier. xx, 429 (1993) and Phalen et al., “Inhalation exposure methodology.” Environ Health Perspect 56:23-34 (1984)), it is possible to estimate the pharmacokinetic advantage of inhalation relative to intravenous administration, Rd, by comparing the areas under the curve (AUC) of a plot of the drug concentration as a function of time following respiratory and intravenous (IV) administration:
Rd=[(AUClung/AUCplasma)respiratory]/[(AUClung/AUCplasma)IV]

[8] = tested on: rat MCT model of PAH; test: Efficacy study in the rat MCT model; type: in vivo
Protocol: Efficacy Study in the Rat MCT Model.
Male Sprague Dawley rats received MCT 60 mg/kg IPMCT, and after 3 weeks, PK10453 or vehicle control were administered by inhalation. Four groups were studied: vehicle control (4 min exposure) and three treatment groups of PK10453 with exposure times 2 minutes (D2), 4 minutes (D4), or 8 minutes (D8) three times a day. These regimens were administered for two weeks. The vehicle consisted of aerosolized IM tosylic acid neutralized with ammonia vapor as described above. The pH of a solution prepared by dissolving captured aerosol particles in water was measured for every dose and was consistently in the range of 5.5-6.0. At the end of the study, the RV systolic pressure (RVSP) was measured, and the heart chambers dissected and weighed.

[9] = Body weight, MCT+PN model (FIG. 11); type: in vivo, rat; conditions: treated vs. vehicle groups
Excerpt: FIG. 11 is a graphic representation of subject body weight in vehicle administered and PK10453 treated subjects, where squares indicate vehicle treated (n=10), triangles indicate PK10453 D4 group (n=10), and diamonds indicate PK10453 D8 group (n=6).

[10] = tested on: rat MCT+PN model of PAH; test: Telemetry study of PA pressure in the rat MCT+PN model; type: in vivo
Protocol: Efficacy Study in the Rat MCT+PN Model.
Pneumonectomy and implantation of a TRM53P telemetry monitor in the pulmonary artery (Telemetry Research, New Zealand and ADInstruments, Colorado) was carried out in rats. Two weeks after MCT, PK10453 was administered three times daily for 1 week. Dosing was begun 2 weeks after MCT rather than 3 weeks, because in this more aggressive model the animals developed PAH more quickly and developed distress sooner than in MCT only treated animals (Pulmokine unpublished data). The two groups underwent 4 minute exposures of either the vehicle control or PK10453. Sampling of PA pressure was performed 5 minutes before each morning dose in ambulatory animals in room air (est. pressure 716 mm Hg based on elev. of animal facility).

[11] = Fluorescent imaging of lung distribution of inhaled drug with IR780 tracer; type: in vivo, rat; conditions: inhalation with IR780 tracer, 2 min exposure
Protocol: The spatial distribution of inhaled PK10453 in the lung was evaluated by fluorescent imaging. For this study, a near IR fluorescent tracer, IR-780, was added to the drug solution in the nebulizer. In this way, the dried aerosol particles contained both the drug and IR tracer. After a two minute exposure, animals were placed under general anesthesia underwent intubation via tracheostomy, and the lungs were excised. OCT/PBS was infused via the pulmonary artery, the lung insufflated with air, and the lungs frozen in the vapor phase of liquid nitrogen. Serial approximate 2 mm sections of the lung were made and imaged on a Licor Odyssey Imager.

[12] = tested on: rat MCT+PN model of PAH; test: Rat MCT+PN model efficacy: PV loops, RV hypertrophy; type: in vivo; conditions: for HR / EF / ESP / CO / EDP / EDV / ESV / SV / SW: MCT+PN, mean, n=4; for EF / ESP: RV
Protocol: In a separate cohort of animals, the MCT+PN model was developed as described above, and PK10453 was then administered for 4 minutes or 8 minutes three times a day to the drug treated group. The vehicle control group underwent 4 minute exposures three times a day. Pressure Volume (PV) loops were obtained with an admittance system (Scisense, Inc.) after 14 days of treatment, while rats were under general anesthesia with isoflurane and 100% FiO2.
PV loop study. The RV end systolic pressure (ESP) was lower and the RV ejection fraction (EF) was higher in both the D4 and D8 treatment groups compared to vehicle control. Cardiac output in the D8 group was increased compared to the Vehicle group. The study animals underwent left pneumonectomy followed 7 days later by MCT 60 mg/kg IP. Two weeks after MCT administration, PK10453 or vehicle were given by inhalation three times a day for two weeks. PV loops were acquired at the end of this period. With respect to Table 3: V=vehicle; D4=4 minute inhalation PK10453; D8=8 minute inhalation PK10453; n=4 each group; *p<0.001; **p≦0.01; §p<0.05 vs. V.

[13] = tested on: rat MCT+PN model of PAH; test: Histology and morphometric analysis of pulmonary arterioles, MCT+PN model; type: in vivo
Excerpt: Histology and Morphometric Analysis.
At the end of the study, the heart and lungs were removed from ventilated animals under general anesthesia. Heparinized saline was infused under pressure through the main pulmonary artery. The right upper lobe was immediately tied off and placed in liquid nitrogen for Western blot and NanoPro 100 assay analysis. The heart was removed, and the RV free wall, interventricular septum and LV free wall dissected and weighed. Buffered formalin (10%) was infused under pressure both through the pulmonary artery and the trachea. Morphometric analysis was performed on H&E stained formalin fixed tissue sectioned at 8 μm. The media area and lumen area of pulmonary arterioles were measured with Image J software by a technician blinded to treatment group. Measurements were made on 20 pulmonary arterioles per section. The ratio of the lumen area to the total media area was determined. This ratio normalizes the variation in total pulmonary arteriole area.

[14] = tested on: pSTAT3/STAT3; test: NanoPro immunoassay of lung extracts, MCT+PN model; type: in vivo, rat; conditions: D4 and D8 groups compared to vehicle
Protocol: as §1

COc1cc(-c2cncc(N[C@@H](C)c3cccc(NC(=O)c4cncc(C)c4)c3)n2)ccc1O [PK10453, (S)—N-(3-(1-((6-(4-hydroxy-3-methoxyphenyl)pyrazin-2yl)amino)ethyl)phenyl)-5-methylnicotinamide]
pERK1/ERK1 [1]: significant reductions
ppERK1/ERK1 [1]: significant reductions
IC50 [2]: < 0.5 µM
TV ([3]; D4, Day1, prior to first dose): 1.00 mL
MV ([3]; D4, Day15): 176.12§ ml/min
TV ([3]; D4, Day15): 0.85 mL
TV ([3]; D8, Day1, prior to first dose): 0.74 mL
MV ([3]; D8, Day15): 128.49 mL/min
TV ([3]; D8, Day15): 0.63 mL
effect on lung function ([3]; inhaled, 2 wk administration course): did not appear to adversely affect; also recorded: no adverse effect
IC50 [4]: 0.015 µM
effect on systemic blood pressure [5]: did not have an adverse effect; also recorded: no significant effect
IC50 [6]: 0.021 µM
A of Y = AEXP(-bX) ([7]; Lung (INH)): 2498 ng/g lung
b of Y = AEXP(-bX) ([7]; Lung (INH)): 0.03 min⁻¹
A of Y = AEXP(-bX) ([7]; Lung (IV)): 440 ng/g lung
b of Y = AEXP(-bX) ([7]; Lung (IV)): 0.06 min⁻¹
A of Y = AEXP(-bX) ([7]; Plasma (INH)): 132.7 ng/g lung
b of Y = AEXP(-bX) ([7]; Plasma (INH)): 0.07 min⁻¹
A of Y = AEXP(-bX) ([7]; Plasma (IV)): 1260 ng/g lung
b of Y = AEXP(-bX) ([7]; Plasma (IV)): 0.07 min⁻¹
Rd, pharmacokinetic advantage of inhalation relative to IV ([7]; [(AUClung/AUCplasma)respiratory]/[(AUClung/AUCplasma)IV]): 44.6 fold and 45 fold and 44.58 fold
AUC ([7]; inhaled, Plasma (INH)): 65.5 ng·h/mL
AUC ([7]; Plasma (IV)): 617 ng·h/mL
RVSP ([8]; D2, 2 min inhalation three times a day, two weeks): 51.4±6.5 mm Hg
reduction in RVSP compared to vehicle ([8]; D4): 44%
RVSP ([8]; D4, 4 min inhalation three times a day, two weeks): 44.4±3.8 mm Hg
reduction in RVSP compared to vehicle ([8]; D8): 54%
RVSP ([8]; D8, 8 min inhalation three times a day, two weeks): 37.1±4.5 mm Hg
decrease of RV systolic pressure ([8]; inhaled, dose group not stated): 50%
RV hypertrophy, ratio (RV+IVS)/LV weight ([8]; inhaled, two weeks): significant reduction
body weight [9]: trend to a slower rate of decline
PA systolic pressure ([10]; 4 min exposure 3x/day, after five days of treatment): 47.3±3.0 mm Hg
PA systolic pressure ([10]; 4 min exposure 3x/day, treatment day 8): 47.3±4.9 mm Hg
PA systolic pressure ([10]; day 0 prior to start of treatment): 43.1±3.5 mm Hg
fluorescence intensity distribution in lung sections [11]: well distributed throughout the lungs
RVSP ([12]; D4 MCT+PN group (n=4)): 43.2±6.1 mm Hg
RVSP ([12]; D8 MCT+PN group (n=4)): 38.4±1.4 mm Hg
HR ([12]; D4, 4 minute inhalation 3x/day, two weeks): 288 bpm
EF ([12]; D4): 65.4**
ESP ([12]; D4): 43.20* mm Hg
CO ([12]; D4): 77.59 mL/min
EDP ([12]; D4): 2.62§ mm Hg
EDV ([12]; D4): 408.95 µL
ESV ([12]; D4): 144.14 µL
SV ([12]; D4): 264.81 µL
SW ([12]; D4): 9818
HR ([12]; D8, 8 minute inhalation 3x/day, two weeks): 315 bpm
EF ([12]; D8): 67.1**
ESP ([12]; D8): 38.44* mm Hg
CO ([12]; D8): 105.1** ml/min
EDP ([12]; D8): 4.87 mm Hg
EDV ([12]; D8): 488.68 µL
ESV ([12]; D8): 155.40 µL
SV ([12]; D8): 333.28** μl
SW ([12]; D8): 5481
RV hypertrophy ([12]; rat MCT+PN, inhaled, two weeks): significant decrease
lumen area to media area ratio (L/M) ([13]; D4): 0.75±0.14
lumen area to media area ratio (L/M) ([13]; D8): 1.17±0.07
pSTAT3/STAT3 ratio [14]: significant reduction

From patent publication US20150352111A1, “Therapeutic Indications of Kinase Inhibitors” (Pulmokine, Inc., priority 2013, published 2015)
